Reference: ChEMBL document CHEMBL5728685, “Macrocycle containing aminopyrazole and pyrimidine and pharmaceutical composition and use thereof” (2021)

target: High affinity nerve growth factor receptor (Homo sapiens, UniProt P04629); assay: Inhibition Assay: A testing platform for TrkAWT kinase activity was established based on Homogeneous Time-Resolved Fluorescence (HTRF) assay, and the activities of the compounds were tested using the platform. The compounds were subjected to five-fold gradient dilution for eight times with 100% DMSO with a starting concentration of 200 μM (9 concentrations in total). 4 μL of diluted sample for …
Sequence (P04629 whole entry): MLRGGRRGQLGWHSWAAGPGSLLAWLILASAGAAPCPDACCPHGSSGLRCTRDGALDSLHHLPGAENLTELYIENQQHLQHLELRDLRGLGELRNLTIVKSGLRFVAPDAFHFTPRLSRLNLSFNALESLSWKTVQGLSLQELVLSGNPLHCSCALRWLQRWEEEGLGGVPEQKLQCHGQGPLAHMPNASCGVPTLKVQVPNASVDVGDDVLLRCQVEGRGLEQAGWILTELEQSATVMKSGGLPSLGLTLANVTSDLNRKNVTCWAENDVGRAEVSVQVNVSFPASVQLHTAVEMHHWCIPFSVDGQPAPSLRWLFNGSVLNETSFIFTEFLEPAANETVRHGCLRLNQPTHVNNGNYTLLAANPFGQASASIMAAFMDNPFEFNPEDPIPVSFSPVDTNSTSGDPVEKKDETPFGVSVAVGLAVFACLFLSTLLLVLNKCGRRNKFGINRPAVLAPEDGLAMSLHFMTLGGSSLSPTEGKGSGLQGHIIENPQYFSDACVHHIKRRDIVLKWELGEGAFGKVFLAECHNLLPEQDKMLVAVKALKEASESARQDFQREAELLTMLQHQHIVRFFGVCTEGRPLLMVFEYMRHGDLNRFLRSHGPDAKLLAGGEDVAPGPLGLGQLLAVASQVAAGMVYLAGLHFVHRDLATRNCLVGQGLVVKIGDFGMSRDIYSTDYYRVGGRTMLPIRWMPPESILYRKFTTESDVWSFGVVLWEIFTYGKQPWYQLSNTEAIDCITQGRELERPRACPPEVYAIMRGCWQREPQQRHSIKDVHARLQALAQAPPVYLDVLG

SMILES | IC50
C[C@@H]1CCc2ncc(F)cc2[C@H]2C[C@H](F)CN2c2ccn3nc(N)c(c3n2)C(=O)N1 | 0.23 nM
Nc1nn2ccc3nc2c1C(=O)NCCCn1cc(F)cc(c1=O)[C@H]1C[C@H](F)CN31 | 0.23 nM
Nc1nn2ccc3nc2c1C(=O)NCCOc1ncc(F)cc1C1CCCN31 (stereo not drawn) | 0.8 nM
